Here are results for 36 molecules from ChEMBL document CHEMBL1130737, “Inhibitors of acyl-CoA:cholesterol O-acyltransferase (ACAT) as hypocholesterolemic agents: synthesis and structure-activity relationships of novel series of sulfonamides, acylphosphonamides and acylphosphoramidates” (Bioorg Med Chem Lett, 1998).

Assay [1] deals with Rattus norvegicus. In words: In vivo percent change in plasma cholesterol level was measured at a dose of 30 mg/Kg in rat and expressed as deltaTC; p < 0.01. Format: functional.
For assay [2], the system named is Rattus norvegicus. In words: In vivo percent change in plasma cholesterol level was measured at a dose of 30 mg/Kg in rat and expressed as deltaTC; p < 0.05. Format: functional.
For assay [3], the target named is T1, Acyl-CoA:cholesterol acyltransferase (Oryctolagus cuniculus, UniProt Q95214).
T1 sequence (Q95214 whole entry): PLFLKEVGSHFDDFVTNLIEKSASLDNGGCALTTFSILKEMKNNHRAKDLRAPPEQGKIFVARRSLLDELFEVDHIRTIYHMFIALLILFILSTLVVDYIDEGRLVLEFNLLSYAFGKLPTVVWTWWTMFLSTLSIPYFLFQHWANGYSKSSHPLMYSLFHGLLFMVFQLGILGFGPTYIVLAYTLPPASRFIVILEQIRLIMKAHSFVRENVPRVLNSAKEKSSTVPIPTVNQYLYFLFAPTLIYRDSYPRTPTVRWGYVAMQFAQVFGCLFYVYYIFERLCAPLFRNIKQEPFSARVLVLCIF
The assay can be described thus: In vitro inhibition of ACAT by incubation with [1-14C]oleolyl-CoA and intestinal microsomes isolated from cholesterol-fed rabbits. Also noted: species or system Intestine.

The test system of assay [4] is Rattus norvegicus. In words: In vivo percent change in plasma cholesterol level was measured at a dose of 10 mg/Kg in rat and expressed as deltaTC; not significant. Type of assay: functional.
The test system of assay [5] is Rattus norvegicus. In words: In vivo percent change in plasma cholesterol level was measured at a dose of 1 mg/Kg in rat and expressed as deltaTC; not significant. Type of assay: functional.
Assay [6] has as its system Rattus norvegicus. The assay can be described thus: In vivo percent change in plasma cholesterol level was measured at a dose of 30 mg/Kg in rat and expressed as deltaTC; not significant. Format: functional.
Assay [7] relates to Rattus norvegicus. In words: In vivo percent change in plasma cholesterol level was measured at a dose of 30 mg/Kg in rat and expressed as deltaTC; p < 0.001. Type of assay: functional.
The subject of assay [8] is Rattus norvegicus. The assay can be described thus: In vivo percent change in plasma cholesterol level was measured at a dose of 1 mg/Kg in rat and expressed as deltaTC; p < 0.05. Format: functional.

A value given as a limit tells only on which side of the number the result lay.

For `CCCCCCCCCCCCCCOC(=O)CS(=O)(=O)Nc1c(C(C)C)cccc1C(C)C`, the DeltaTC in the assay with Rattus norvegicus [1] is on record as -45%. The term IC50 denotes the concentration that gives 50% inhibition. Read a high IC50 as weaker potency. `CCCCCCCCCCOC(=O)CS(=O)(=O)Nc1c(C(C)C)cccc1C(C)C`: the DeltaTC in the assay with Rattus norvegicus [2] is recorded as -16%. The IC50 in assay [3] was > 1000 nM. Turning to `CC(C)c1cccc(C(C)C)c1NS(=O)(=O)CC(=O)N(Cc1ccccc1)C(C)C`, the DeltaTC in the assay on Rattus norvegicus [1] is reported as -31%. The midpoint of inhibition in assay [3], the IC50, lay at 150 nM. As for `COP(=O)(Cc1c(C(C)C)cccc1C(C)C)NC(=O)Cc1c(C(C)C)cc(C(C)C)cc1C(C)C` (stereo not drawn), the DeltaTC with Rattus norvegicus [4] is listed as -2%. The same molecule displayed a half-inhibitory concentration (IC50) in assay [3] of 1200 nM. For `COP(=O)(NC(=O)Cc1c(C(C)C)cc(C(C)C)cc1C(C)C)Oc1c(C(C)C)cc(Cl)cc1C(C)C` (stereo not drawn), the DeltaTC in the assay on Rattus norvegicus [5] is listed as -12%. In assay [3], the half-inhibitory concentration (IC50) is > 5000 nM. For the molecule `CC(C)c1cccc(C(C)C)c1NC(=O)CS(=O)(=O)Oc1c(C(C)C)cccc1C(C)C`, in the assay with Rattus norvegicus [1], the DeltaTC is reported as -42%. Besides, the IC50 in assay [3] stood at 7 nM.

For the molecule `CC(C)c1cccc(C(C)C)c1NS(=O)(=O)CC(=O)Oc1c(C(C)C)cccc1C(C)C`, in assay [3], the concentration for half-maximal inhibition (IC50) was > 1000 nM.

For `CC(C)c1cccc(C(C)C)c1OS(=O)(=O)CC(=O)NC(c1ccccc1)c1ccccc1`, in the assay on Rattus norvegicus [1], the DeltaTC is reported as -43%. The concentration for half-maximal inhibition (IC50) in assay [3] is 1800 nM. `CCCCCCSC(=O)CS(=O)(=O)Nc1c(C(C)C)cccc1C(C)C` had a concentration for half-maximal inhibition (IC50) in assay [3] of 1000 nM.

`CCCCCCCCCCCCNC(=O)CS(=O)(=O)Oc1c(C(C)C)cccc1C(C)C` gave a 50% inhibitory concentration (IC50) in assay [3] of 3000 nM. Moreover, the DeltaTC in the assay with Rattus norvegicus [6] is recorded as -3%. Regarding `CC(C)c1cccc(C(C)C)c1OC(=O)[N-]S(=O)(=O)Oc1c(C(C)C)cccc1C(C)C.[Na+]`, in the assay with Rattus norvegicus [1], the DeltaTC is reported as -74%. The midpoint of inhibition in assay [3], the IC50, lay at 5200 nM. For the molecule `CCCCCCCCOC(=O)CS(=O)(=O)Nc1c(C(C)C)cccc1C(C)C`, in assay [3], the half-inhibitory concentration (IC50) is > 1000 nM. For the same molecule, the DeltaTC with Rattus norvegicus [6] is given as -4%.

On to `COP(=O)(Cc1c(C(C)C)cc(C(C)C)cc1C(C)C)NC(=O)Cc1c(C(C)C)cccc1C(C)C` (stereo not drawn), for which the half-inhibitory concentration (IC50) in assay [3] was 290 nM.

On to `COP(=O)(NC(=O)Cc1c(C(C)C)cc(C(C)C)cc1C(C)C)Oc1c(C(C)C)cccc1C(C)C` (stereo not drawn), for which the half-maximal inhibitory concentration (IC50) in assay [3] was 4800 nM. On the same count and under the same terms, then `CC(C)c1cccc(C(C)C)c1NS(=O)(=O)CC(=O)NCC1(c2ccccc2)CCCC1`, with > 1000 nM.

As for `CC(C)c1cccc(C(C)C)c1NC(=O)CS(=O)(=O)Nc1c(C(C)C)cccc1C(C)C`, the DeltaTC in the assay on Rattus norvegicus [7] is reported as -51%. The same molecule had an IC50 in assay [3] of 350 nM.

In the case of `COP(=O)(Cc1c(C(C)C)cc(C(C)C)cc1C(C)C)NC(=O)Cc1c(C(C)C)cc(C(C)C)cc1C(C)C` (stereo not drawn), in the assay with Rattus norvegicus [4], the DeltaTC was -17%. In assay [3], this molecule gave a 50% inhibitory concentration (IC50) of 740 nM. Molecule `CC(C)c1cc(C(C)C)c(OC(=O)CS(=O)(=O)Nc2c(C(C)C)cccc2C(C)C)c(C(C)C)c1` displayed an IC50 in assay [3] of 2800 nM. For the same molecule, the DeltaTC with Rattus norvegicus [6] was -19%.

On to `CCCCCCCCCCCCSC(=O)CS(=O)(=O)Nc1c(C(C)C)cccc1C(C)C`, for which the DeltaTC with Rattus norvegicus [1] is listed as -71%. The IC50 in assay [3] is 73 nM.

For the molecule `CC(C)c1cc(C(C)C)c(OS(=O)(=O)CC(=O)Nc2c(C(C)C)cccc2C(C)C)c(C(C)C)c1`, in the assay with Rattus norvegicus [1], the DeltaTC is recorded as -60%. For the same molecule, 7 nM corresponded to half-maximal inhibition in assay [3] (IC50). Consider `CCCCCCOC(=O)CS(=O)(=O)Nc1c(C(C)C)cccc1C(C)C`, for which the IC50 in assay [3] is > 1000 nM. The DeltaTC in the assay with Rattus norvegicus [6] is given as -5%. The matching figures for `COc1cc(OC)c(OC(=O)CS(=O)(=O)Nc2c(C(C)C)cccc2C(C)C)c(OC)c1`: > 1000 nM and -6%. Regarding `CC(C)c1cc(C(C)C)c(CC(=O)NP(=O)(Oc2c(C(C)C)cccc2C(C)C)c2ccccc2)c(C(C)C)c1` (stereo not drawn), the DeltaTC in the assay on Rattus norvegicus [8] is -25%. Also, the IC50 in assay [3] was 2500 nM.

For the molecule `CCCCCCCCCCCCNC(=O)CS(=O)(=O)Nc1c(C(C)C)cccc1C(C)C`, in the assay on Rattus norvegicus [1], the DeltaTC was -29%. The molecule further yielded a concentration for half-maximal inhibition (IC50) in assay [3] of 320 nM. Consider `CC(C)c1cc(C(C)C)c(NS(=O)(=O)CC(=O)Oc2c(C(C)C)cccc2C(C)C)c(C(C)C)c1`, for which the DeltaTC with Rattus norvegicus [1] was -29%. In addition, the IC50 in assay [3] is > 1000 nM. In the case of `CCOC(=O)CS(=O)(=O)Nc1c(C(C)C)cccc1C(C)C`, in assay [3], the IC50 is > 1000 nM. For the same molecule, the DeltaTC in the assay with Rattus norvegicus [6] is 2%.

Consider `CCCCCCCCCCSC(=O)CS(=O)(=O)Nc1c(C(C)C)cccc1C(C)C`, for which, in assay [3], inhibition was half-maximal at 130 nM (IC50). With `CCCCCCCCSC(=O)CS(=O)(=O)Nc1c(C(C)C)cccc1C(C)C`, in the assay with Rattus norvegicus [2], the DeltaTC is -32%. Also, in assay [3], inhibition was half-maximal at 150 nM (IC50).

As to `CCCCCCNC(=O)CS(=O)(=O)Nc1c(C(C)C)cccc1C(C)C`, the DeltaTC in the assay with Rattus norvegicus [2] is on record as -16%. In assay [3], the half-inhibitory concentration (IC50) was > 5000 nM. Turning to `CCCCCCCCCCCCOC(=O)CS(=O)(=O)Nc1c(C(C)C)cccc1C(C)C`, the DeltaTC in the assay on Rattus norvegicus [1] was -34%. In the case of `CC(C)c1cccc(C(C)C)c1NS(=O)(=O)CC(=O)Sc1c(C(C)C)cccc1C(C)C`, the half-maximal inhibitory concentration (IC50) in assay [3] is > 50000 nM. In the assay on Rattus norvegicus [6], the DeltaTC is -16%.

As for `CCCCCCCCCCCCCCSC(=O)CS(=O)(=O)Nc1c(C(C)C)cccc1C(C)C`, in the assay with Rattus norvegicus [1], the DeltaTC is given as -23%. In assay [3], this molecule showed an IC50 of 36 nM. On to `CCCCCCCCCCCCCCCCCCSC(=O)CS(=O)(=O)Nc1c(C(C)C)cccc1C(C)C`, for which the half-inhibitory concentration (IC50) in assay [3] is > 5000 nM. In the assay with Rattus norvegicus [6], the DeltaTC is on record as -35%. As to `CCCCCCCCCCCCC(C)OC(=O)CS(=O)(=O)Nc1c(C(C)C)cccc1C(C)C` (stereo not drawn), the DeltaTC in the assay on Rattus norvegicus [7] was -39%. In assay [3], this molecule registered a half-maximal inhibitory concentration (IC50) of 21 nM. Take `CCCCCCCCN(CCCCCCCC)C(=O)CS(=O)(=O)Nc1c(C(C)C)cccc1C(C)C`: the DeltaTC in the assay on Rattus norvegicus [6] is reported as -19%. Turning to `CC(C)c1cc(C(C)C)c(CC(=O)NS(=O)(=O)Oc2c(C(C)C)cccc2C(C)C)c(C(C)C)c1` [AVASIMIBE], the DeltaTC in the assay on Rattus norvegicus [1] is reported as -73%. Further, half-maximal inhibition in assay [3] (IC50) required 12000 nM.
